How the values were obtained:
Type in all cases: biochemical
[1] = test system: recombinant Amaranthus tuberculatus PPO2 G399A
[2] = test system: recombinant Amaranthus tuberculatus PPO2 ΔG210
[3] = test system: recombinant Amaranthus tuberculatus PPO2 R128L

SMILES	Resistance factor G399A (IC50 mutant / IC50 sensitive PPO2) [1]	Resistance factor ΔG210 (IC50 mutant / IC50 sensitive PPO2) [2]	Resistance factor R128L (IC50 mutant / IC50 sensitive PPO2) [3]
Cc1nn(-c2cc(CC(Cl)C(=O)O)c(Cl)cc2F)c(=O)n1C(F)F (stereo not shown) [Carfentrazone]	116	3957	3
CC(C)Oc1cc(-n2nc(C(C)(C)C)oc2=O)c(Cl)cc1Cl [Oxadiazon]	285	151	1
C#CCN1C(=O)COc2cc(F)c(N3C(=O)C4=C(CCCC4)C3=O)cc21 [Flumioxazin]	868	3157	2631
C=CCOC(=O)C(C)(C)OC(=O)c1cc(-n2c(=O)cc(C(F)(F)F)n(C)c2=O)ccc1Cl [Butafenacil]	741	17578	23
COC(=O)CSc1cc(/N=c2\sc(=O)n3n2CCCC3)c(F)cc1Cl [Fluthiacet-methyl]	3567	94	4
CCOC(=O)C(C)OC(=O)c1cc(Oc2ccc(C(F)(F)F)cc2Cl)ccc1[N+](=O)[O-] (stereo not shown) [Lactofen]	28167	18271	2812
O=C(O)c1cc(Oc2ccc(C(F)(F)F)cc2Cl)ccc1[N+](=O)[O-] [Acifluorfen]	>541	>541	>541
CCOC(=O)COc1cc(-c2nn(C)c(OC(F)F)c2Cl)c(F)cc1Cl [Pyraflufen-ethyl]	11816	1083	1
Cc1nn(-c2cc(NS(C)(=O)=O)c(Cl)cc2Cl)c(=O)n1C(F)F [Sulfentrazone]	282	–	–
CCOc1cc(Oc2ccc(C(F)(F)F)cc2Cl)ccc1[N+](=O)[O-] [Oxyfluorfen]	18548	982	74
C#CCN(C)c1c(C#N)cnn1-c1nn2c(c1Cl)CCCC2 [Pyraclonil]	799	782	0
